Source: patent US20250215039A1, “NUCLEOSIDES FOR TREATING CANCER” (PRIMEFOUR THERAPEUTICS, INC., priority 2022, published 2025)
Where two headings read alike, the source gives them in different places.

Test system: cancer cell lines
Experiment: Cancer cell proliferation activity (CellTiterGlo, 72 h)
Assay type: cell-based
Details: 72 h, 72 h, read-out: IC50
Experimental: Dose response relationships on cell proliferation was assessed for representative Compounds of the Disclosure on cancer cell lines. Briefly, compound treatment of cells started one day after seeding with a final DMSO concentration of 0.1%, and was performed by nanodrop-dispensing using a Tecan Dispenser. 0.1% DMSO (solvent) and Staurosporine (10 μM) served as high control (100% viability) and low control (0% viability), respectively.
Cells were cultured in the appropriate media. For the assays, cells were seeded in white cell culture-treated flat and clear bottom multiwell plates and incubated at 37° C. overnight before compound was added. After incubation for 72 h at 37° C. at 5% or 10% CO2 dependent on the medium, cell plates were equilibrated to room temperature for one hour, CellTiterGlo reagent (Promega) was added and luminescence was measured approximately an hour later using a luminometer.
Raw data were converted into percent cell viability relative to the high and low control, which were set to 100% and 0%, respectively.
The IC50 values are summarized in Tables 9A-1, Table 10A, and Table 10B.

IC50 (5637 cell line (bladder)): 880 nM
IC50 (CLS439 cell line (bladder)): > 50000 nM
IC50 (HS729 cell line (muscle)): 1240 nM
IC50 (JAR cell line (placenta)): 440 nM
IC50 (U20S cell line, bone): 840 nM
IC50 (Homo sapiens, 22Rv1, 72 h, 22RV1 cell line (prostate)): 1860 nM
IC50 (Homo sapiens, 786-0, 72 h, 786O cell line (kidney)): 620 nM
IC50 (Homo sapiens, A204, 72 h, A204 cell line (muscle)): 550 nM
IC50 (Homo sapiens, A549, 72 h, A549 cell line, lung): > 50000 nM
IC50 (Homo sapiens, A673, 72 h, A673 cell line (bone)): 2560 nM
IC50 (Homo sapiens, A2780, 72 h, A2780 cell line (ovary)): 910 nM
IC50 (Homo sapiens, A-375, 72 h, A375 cell line (skin)): 530 nM
IC50 (Homo sapiens, A-431, 72 h, A431 cell line (skin)): 530 nM
IC50 (Homo sapiens, ACHN, ACHN cell line (kidney)): > 50000 nM
IC50 (Homo sapiens, ASPC1, 72 h, ASPC1 cell line (pancreas)): 470 nM
IC50 (Homo sapiens, BT-20, 72 h, BT20 cell line (breast)): 550 nM
IC50 (Homo sapiens, C-33-A, C33A cell line, endometrial): 950 nM
IC50 (Homo sapiens, CAKI-1, 72 h, CAKI1 cell line (kidney)): 60 nM
IC50 (Homo sapiens, COLO 205, 72 h, COLO205 cell line (colon)): 1060 nM
IC50 (Homo sapiens, COLO-678, 72 h, COLO678 cell line (colon)): > 50000 nM
IC50 (Homo sapiens, Ca-Ski, CASKI cell line, endometrial): 310 nM
IC50 (Homo sapiens, Caco-2, 72 h, CACO2 cell line (colon)): 1040 nM
IC50 (Homo sapiens, Calu-6, 72 h, CALU6 cell line (lung)): 650 nM
IC50 (Homo sapiens, DLD-1, 72 h, DLD1 cell line (colon)): 2070 nM
IC50 (Homo sapiens, DU-145, 72 h, DU145 cell line (prostate)): 190 nM
IC50 (Homo sapiens, EFO-21, 72 h, EFO21 cell line (ovary)): 520 nM
IC50 (Homo sapiens, EJ-28, 72 h, EJ28 cell line (bladder)): 490 nM
IC50 (Homo sapiens, Granta-519, 72 h, GRANTA-519 cell line (hematological)): > 50000 nM
IC50 (Homo sapiens, HCT-15, 72 h, HCT15 cell line (colon)): 2780 nM
IC50 (Homo sapiens, HCT-116, 72 h, HCT116 cell line (colon)): 820 nM
IC50 (Homo sapiens, HEK293, 72 h, HEK293 cell line (kidney)): 710 nM
IC50 (Homo sapiens, HL-60, 72 h, HL-60 cell line (hematological)): 830 nM
IC50 (Homo sapiens, HT-29, 72 h, HT29 cell line (colon)): 530 nM
IC50 (Homo sapiens, HT-1080, 72 h, HT1080 cell line (connective tissue)): > 50000 nM
IC50 (Homo sapiens, HeLa, HELA cell line, endometrial): 1070 nM
IC50 (Homo sapiens, HepG2, 72 h, HEPG2 cell line (liver)): 670 nM
IC50 (Homo sapiens, Hs-578T, HS578T cell line, breast): 850 nM
IC50 (Homo sapiens, IGROV-1, 72 h, IGROV1 cell line (ovary)): 380 nM
IC50 (Homo sapiens, IMR-90, 72 h, IMR90 cell line, lung): 640 nM
IC50 (Homo sapiens, J82, 72 h, J82 cell line (bladder)): 540 nM
IC50 (Homo sapiens, JEG-3, 72 h, JEG3 cell line (placenta)): 670 nM
IC50 (Homo sapiens, JIMT-1, 72 h, JIMT1 cell line (breast)): 160 nM
IC50 (Homo sapiens, K562, 72 h, K-562 cell line (hematological)): > 50000 nM
IC50 (Homo sapiens, Kasumi 1, 72 h, KASUMI-1 cell line (hematological)): 150 nM
IC50 (Homo sapiens, L-363, 72 h, L-363 cell line (hematological)): 570 nM
IC50 (Homo sapiens, LoVo, LOVO cell line (colon)): 290 nM
IC50 (Homo sapiens, MCF7, 72 h, MCF7 cell line (breast)): > 50000 nM
IC50 (Homo sapiens, MDA-MB-231, 72 h, MDAMB231 cell line (breast)): > 50000 nM
IC50 (Homo sapiens, MDA-MB-435, 72 h, MDAMB435 cell line (skin)): 1720 nM
IC50 (Homo sapiens, MDA-MB-436, 72 h, MDAMB436 cell line (breast)): 370 nM
IC50 (Homo sapiens, MDA-MB-468, 72 h, MDAMB468 cell line (breast)): 690 nM
IC50 (Homo sapiens, MG-63, 72 h, MG63 cell line (bone)): > 50000 nM
IC50 (Homo sapiens, MHH-ES-1, 72 h, MHHES1 cell line (bone)): 600 nM
IC50 (Homo sapiens, MIA PaCa-2, 72 h, MIAPACA2 cell line (pancreas)): > 50000 nM
IC50 (Homo sapiens, MINO, MINO cell line (hematological)): 250 nM
IC50 (Homo sapiens, MV4-11, 72 h, MV4-11 cell line (hematological)): 170 nM
IC50 (Homo sapiens, NCI-H23, 72 h, NCI-H23 cell line (lung)): 830 nM
IC50 (Homo sapiens, NCI-H82, 72 h, NCIH82 cell line (lung)): 610 nM
IC50 (Homo sapiens, NCI-H292, 72 h, NCIH292 cell line (lung)): > 50000 nM
IC50 (Homo sapiens, NCI-H460, 72 h, NCIH460 cell line (lung)): 970 nM
IC50 (Homo sapiens, OVCAR-3, 72 h, OVCAR3 cell line (ovary)): 260 nM
IC50 (Homo sapiens, OVCAR-4, 72 h, OVCAR4 cell line (ovary)): 960 nM
IC50 (Homo sapiens, PANC-1, 72 h, PANC1 cell line (pancreas)): > 50000 nM
IC50 (Homo sapiens, PC-3, 72 h, PC3 cell line (prostate)): 870 nM
IC50 (Homo sapiens, PLC-PRF-5, 72 h, PLCPRF5 cell line (liver)): 3200 nM
IC50 (Homo sapiens, Panc1005, 72 h, PANC1005 cell line (pancreas)): 440 nM
IC50 (Homo sapiens, RD, RD cell line (muscle)): 1460 nM
IC50 (Homo sapiens, Ramos, RAMOS cell line (hematological)): 940 nM
IC50 (Homo sapiens, SAOS-2, 72 h, SAOS2 cell line (bone)): 640 nM
IC50 (Homo sapiens, SF-268, 72 h, SF268 cell line (brain)): > 50000 nM
IC50 (Homo sapiens, SF-295, 72 h, SF295 cell line (brain)): 1420 nM
IC50 (Homo sapiens, SK-BR-3, 72 h, SKBR3 cell line (breast)): 150 nM
IC50 (Homo sapiens, SK-HEP1, 72 h, SKHEP1 cell line (liver)): > 50000 nM
IC50 (Homo sapiens, SK-LMS-1, 72 h, SKLMS1 cell line (uterus)): 470 nM
IC50 (Homo sapiens, SK-MEL-5, 72 h, SKMEL5 cell line, skin): > 50000 nM
IC50 (Homo sapiens, SK-MEL-28, 72 h, SKMEL28 cell line (skin)): 1260 nM
IC50 (Homo sapiens, SK-N-AS, SKNAS cell line (brain)): 1140 nM
IC50 (Homo sapiens, SK-N-SH, SKNSH cell line (brain)): 750 nM
IC50 (Homo sapiens, SK-OV-3, 72 h, SKOV3 cell line (ovary)): 760 nM
IC50 (Homo sapiens, SNB-75, 72 h, SNB75 cell line (brain)): 2370 nM
IC50 (Homo sapiens, SU-DHL10, 72 h, SU-DHL-10 cell line (hematological)): 120 nM
IC50 (Homo sapiens, SU-DHL-6, 72 h, SU-DHL-6 cell line (hematological)): 430 nM
IC50 (Homo sapiens, SW-620, 72 h, SW620 cell line (colon)): 730 nM
IC50 (Homo sapiens, T-24, 72 h, T24 cell line (bladder)): 1460 nM
IC50 (Homo sapiens, TE-671, 72 h, TE671 cell line (muscle)): 4780 nM
IC50 (Homo sapiens, THP-1, 72 h, THP-1 cell line (hematological)): > 50000 nM
IC50 (Homo sapiens, U-87 MG, U87MG cell line (brain)): > 50000 nM
IC50 (Homo sapiens, UMUC3, 72 h, UMUC3 cell line (bladder)): > 50000 nM
IC50 (Homo sapiens, UO-31, 72 h, UO31 cell line (kidney)): 630 nM
IC50 (Homo sapiens, WSU-NHL, WSU-NHL cell line (hematological)): 720 nM
IC50 (MT-3, 72 h, MT3 cell line (breast)): 510 nM
IC50 (NCI-H358M, NCIH358M cell line (lung)): 560 nM
IC50 (PBMC, PBMC (hematological)): 310 nM
IC50 (RD-ES, RDES cell line (bone)): 410 nM
Structure (SMILES): CC[C@]1(CO)O[C@@H](n2cnc3c(N)nc(F)nc32)C[C@@H]1O [Cpd. No. 1, (2R,3S,5R)-5-(6-amino-2-fluoro-9H-purin-9-yl)-2-ethyl-2-(hydroxymethyl)tetrahydrofuran-3-ol]
